In the NIST ThermoML archive (doi:10.1016/j.tca.2008.05.004):

Details: 101.33 kPa, Crystal; for molar entropy: Small (less than 1 g) adiabatic calorimetry

O=P([O-])([O-])[O-].[La+3] [lanthanum orthophosphate]
Details	molar entropy [J/K/mol]
2 K	0.00041
4 K	0.00372
6 K	0.01262
8 K	0.0291
10 K	0.0561
12 K	0.09746
14 K	0.1576
16 K	0.2412
18 K	0.3527
20 K	0.4961
25 K	1.015
30 K	1.776
35 K	2.783
40 K	4.024
45 K	5.479
50 K	7.119
60 K	10.84
70 K	14.97
80 K	19.34
90 K	23.86
100 K	28.43
110 K	33.01
120 K	37.56
130 K	42.08
140 K	46.55
150 K	50.59
160 K	55.29
170 K	59.57
180 K	63.77
190 K	67.91
200 K	71.98
210 K	75.99
220 K	79.93
230 K	83.81
240 K	87.62
250 K	91.37
260 K	95.06
270 K	98.69
280 K	102.3
290 K	105.8
300 K	109.2
320 K	116
340 K	122.5
360 K	128.8
373 K	132.9
400 K	141
450 K	155.1
500 K	168.2
550 K	180.3
600 K	191.7
650 K	202.4
700 K	212.6
750 K	222.1
800 K	231.3
850 K	240
900 K	248.3
950 K	256.3
1000 K	263.9
1050 K	271.3
1100 K	278.5
1150 K	285.4
1200 K	292.1
1250 K	298.6
1300 K	305
1350 K	311.1
1400 K	317.1
1450 K	323
1500 K	328.7
1550 K	334.3
1600 K	339.8

Details	mass density [kg/m3]
293 K, X-ray diffraction	5076
